Calls of active or inactive are those of the source. Unless noted, no cut-off for these calls is given here.
Experiments:
MCF7 = assay: Cytotoxicity against human MCF7 cells after 72 hrs by MTT assay; assay type: functional, cell-based; details: for IC50: MCF7, 72 h
Jurkat = assay: Cytotoxicity against human Jurkat cells after 72 hrs by XTT assay; assay type: functional, cell-based
HeLa [1] = assay: Cytotoxicity against human HeLa cells after 72 hrs by MTT assay; assay type: functional, cell-based
A-375 = assay: Cytotoxicity against human A375 cells after 72 hrs by MTT assay; assay type: functional, cell-based; details: for IC50: A-375, 72 h
PC-3 = assay: (§1) Cytotoxicity against human PC3 cells after 72 hrs by MTT assay; assay type: functional, cell-based
MIA PaCa-2 = assay: (§2) Cytotoxicity against human MIAPaCa2 cells after 72 hrs by MTT assay; assay type: functional, cell-based
[2] = as §2; assay type: functional, cell-based; details: MIA PaCa-2, 72 h
HT-29 = assay: Cytotoxicity against human HT-29 cells after 72 hrs by MTT assay; assay type: functional, cell-based; details: HT-29, 72 h
HeLa [3] = assay: Induction of cell cycle arrest in human HeLa cells assessed as accumulation at subG0/G1 phase at 2.68 uM after 48 hrs by propidium iodide staining-based flow cytometry; assay type: functional
HeLa [4] = assay: Potency index, ratio of asiatic acid IC50 to compound IC50 for human HeLa cells; assay type: functional
HeLa [5] = assay: Induction of apoptosis in human HeLa cells assessed as increase in cleaved caspase-8 level at 2.68 uM after 48 hrs by Western blot method; assay type: functional, cell-based
HeLa [6] = assay: Induction of cell cycle arrest in human HeLa cells assessed as accumulation at S phase at 1.34 uM after 24 hrs by propidium iodide staining-based flow cytometry (reference value: 35.72%); assay type: functional
HeLa [7] = assay: Downregulation of cyclin E level in human HeLa cells at 0.67 to 2.68 uM after 48 hrs by Western blot method; assay type: functional, cell-based
HeLa [8] = assay: Induction of apoptosis in human HeLa cells assessed as upregulation of Bax level after 48 hrs by Western blot method; assay type: functional, cell-based
HeLa [9] = assay: Induction of apoptosis in human HeLa cells assessed as increase in cleaved caspase-3 level at 2.68 uM after 48 hrs by Western blot method; assay type: functional, cell-based
HeLa [10] = assay: Induction of apoptosis in human HeLa cells assessed as chromatin condensation at 0.67 to 1.34 uM after 48 hrs by Hoechst 33258 staining-based fluorescence microscopy; assay type: functional, cell-based
HeLa [11] = assay: Induction of apoptosis in human HeLa cells assessed as viable cells at 2.68 uM after 48 hrs by annexin V-FITC/propidium iodide staining-based flow cytometry ( Rvb = 95.4%); assay type: functional; details: read-out: Activity
HeLa [12] = assay: Induction of apoptosis in human HeLa cells assessed as late apoptotic cells at 0.67 uM after 48 hrs by annexin V-FITC/propidium iodide staining-based flow cytometry ( Rvb = 1.28%); assay type: functional
HeLa [13] = assay: Induction of apoptosis in human HeLa cells assessed as cell shrinkage at 0.67 to 1.34 uM after 48 hrs by Hoechst 33258 staining-based fluorescence microscopy; assay type: functional
HeLa [14] = assay: Induction of cell cycle arrest in human HeLa cells assessed as accumulation at G0/G1 phase at 2.68 uM after 24 hrs by propidium iodide staining-based flow cytometry (reference value: 51.41%); assay type: functional
HeLa [15] = assay: Induction of apoptosis in human HeLa cells assessed as downregulation of Bcl2 level after 48 hrs by Western blot method; assay type: functional, cell-based
[16] = as §1; assay type: functional, cell-based; details: PC-3, 72 h
HeLa [17] = assay: Induction of apoptosis in human HeLa cells assessed as early apoptotic cells at 0.67 uM after 48 hrs by annexin V-FITC/propidium iodide staining-based flow cytometry ( Rvb = 3.24%); assay type: functional
HeLa [18] = assay: Induction of apoptosis in human HeLa cells assessed as late apoptotic cells at 2.68 uM after 48 hrs by annexin V-FITC/propidium iodide staining-based flow cytometry ( Rvb = 1.28%); assay type: functional
HeLa [19] = assay: Induction of apoptosis in human HeLa cells assessed as increase in cleaved PARP level at 2.68 uM after 48 hrs by Western blot method; assay type: functional, cell-based
HeLa [20] = assay: Induction of apoptosis in human HeLa cells assessed as early apoptotic cells at 1.34 uM after 48 hrs by annexin V-FITC/propidium iodide staining-based flow cytometry ( Rvb = 3.24%); assay type: functional
HeLa [21] = assay: Induction of apoptosis in human HeLa cells assessed as viable cells at 0.67 uM after 48 hrs by annexin V-FITC/propidium iodide staining-based flow cytometry ( Rvb = 95.4%); assay type: functional; details: read-out: Activity
HeLa [22] = assay: Potency index, ratio of cisplatin IC50 to compound IC50 for human HeLa cells; assay type: functional
BJ = assay: Cytotoxicity against human BJ cells after 72 hrs by MTT assay; assay type: cell-based; details: for IC50: Homo sapiens, BJ; for Activity: human, bj
HeLa [23] = assay: Induction of apoptosis in human HeLa cells assessed as late apoptotic cells at 1.34 uM after 48 hrs by annexin V-FITC/propidium iodide staining-based flow cytometry ( Rvb = 1.28%); assay type: functional
HeLa [24] = assay: Induction of cell cycle arrest in human HeLa cells assessed as accumulation at G0/G1 phase at 1.34 uM after 24 hrs by propidium iodide staining-based flow cytometry (reference value: 51.41%); assay type: functional
HeLa [25] = assay: Induction of apoptosis in human HeLa cells assessed as reduction in adherent cells at 0.67 to 1.34 uM after 48 hrs by Hoechst 33258 staining-based fluorescence microscopy; assay type: functional, cell-based
HeLa [26] = assay: Induction of apoptosis in human HeLa cells assessed as increase in t-Bid level at 2.68 uM after 48 hrs by Western blot method; assay type: functional, cell-based
HeLa [27] = assay: Upregulation of p21 cip1/waf1 level in human HeLa cells at 1.34 to 2.68 uM after 48 hrs by Western blot method; assay type: functional, cell-based
HeLa [28] = assay: Induction of cell cycle arrest in human HeLa cells assessed as accumulation at S phase at 2.68 uM after 24 hrs by propidium iodide staining-based flow cytometry (reference value: 35.72%); assay type: functional
HeLa [29] = assay: Induction of apoptosis in human HeLa cells assessed as viable cells at 1.34 uM after 48 hrs by annexin V-FITC/propidium iodide staining-based flow cytometry ( Rvb = 95.4%); assay type: functional; details: read-out: Activity
HeLa [30] = assay: Induction of apoptosis in human HeLa cells assessed as early apoptotic cells at 2.68 uM after 48 hrs by annexin V-FITC/propidium iodide staining-based flow cytometry ( Rvb = 3.24%); assay type: functional
HeLa [31] = assay: Induction of apoptosis in human HeLa cells assessed as nuclear fragmentation at 2.68 uM after 48 hrs by Hoechst 33258 staining-based fluorescence microscopy; assay type: functional, cell-based
HeLa [32] = assay: Induction of cell cycle arrest in human HeLa cells assessed as accumulation at G0/G1 phase at 1.34 uM after 48 hrs by propidium iodide staining-based flow cytometry (reference value: 54.05%); assay type: functional
HeLa [33] = assay: Downregulation of cyclin D3 level in human HeLa cells after 48 hrs by Western blot method; assay type: functional, cell-based
HeLa [34] = assay: Induction of apoptosis in human HeLa cells assessed as rupture of cell membrane at 2.68 uM after 48 hrs by Hoechst 33258 staining-based fluorescence microscopy; assay type: functional
HeLa [35] = assay: Induction of apoptosis in human HeLa cells assessed as dead cells at 1.34 uM after 48 hrs by annexin V-FITC/propidium iodide staining-based flow cytometry ( Rvb = 0.067%); assay type: functional
HeLa [36] = assay: Induction of apoptosis in human HeLa cells assessed as dead cells at 2.68 uM after 48 hrs by annexin V-FITC/propidium iodide staining-based flow cytometry ( Rvb = 0.067%); assay type: functional
HeLa [37] = assay: Upregulation of p27 kip1 level in human HeLa cells at 1.34 to 2.68 uM after 48 hrs by Western blot method; assay type: functional, cell-based
HeLa [38] = assay: Induction of apoptosis in human HeLa cells assessed as increase in Bax to Bcl2 ratio at 0.67 to 2.68 uM after 48 hrs by Western blot method; assay type: functional, cell-based
HeLa [39] = assay: Induction of apoptosis in human HeLa cells assessed as dead cells at 0.67 uM after 48 hrs by annexin V-FITC/propidium iodide staining-based flow cytometry ( Rvb = 0.067%); assay type: functional

CCCC(=O)OC[C@]1(C)C=C(C=O)[C@@]2(C)[C@H]1CC[C@]1(C)[C@@H]2C[C@@H](F)[C@]23OC(=O)[C@@]4(CC[C@@H](C)[C@H](C)[C@H]42)CC[C@]31C
Activity (MCF7): Dose-dependent effect
IC50 (MCF7): 1.4 µM
Activity (Jurkat): Dose-dependent effect
IC50 (HeLa [1]): 0.95 µM
Activity (A-375): Dose-dependent effect
IC50 (A-375): 1.02 µM
Activity (PC-3): Dose-dependent effect
Activity (MIA PaCa-2): Dose-dependent effect
IC50 [2]: 1.47 µM
IC50 (HT-29): 1.29 µM

C[C@H]1[C@H](C)CC[C@@]23CC[C@]4(C)[C@](OC2=O)([C@H](F)C[C@@H]2[C@@]5(C)C(C=O)=C[C@@](C)(COC(=O)/C=C/c6ccccc6)[C@@H]5CC[C@]24C)[C@H]13
Activity (HeLa [3]): 11.39%
Activity (MCF7): Dose-dependent effect
IC50 (MCF7): 0.84 µM
Activity (Jurkat): Dose-dependent effect
IC50 (Jurkat): 0.68 µM
Ratio IC50 (HeLa [4]): 79
Activity (HeLa [5]): Active
Activity (HeLa [6]): 22.55%
IC50 (HeLa [1]): 0.67 µM
Activity (HeLa [7]): Active
Activity (HeLa [8]): Dose-dependent effect
Activity (HeLa [9]): Active
Activity (HeLa [10]): Active
Activity (A-375): Dose-dependent effect
IC50 (A-375): 0.72 µM
viability at 2.68 µM (HeLa [11]): 62.4%
Activity (HeLa [12]): 1.23%
Activity (HeLa [13]): Active
Activity (HeLa [14]): 72.72%
Activity (HeLa [15]): Dose-dependent effect
Activity (PC-3): Dose-dependent effect
IC50 [16]: 0.74 µM
Activity (HeLa [17]): 3.65%
Activity (HeLa [18]): 22.6%
Activity (HeLa [19]): Active
Activity (HeLa [20]): 5.25%
viability at 0.67 µM (HeLa [21]): 94.7%
Ratio IC50 (HeLa [22]): 3.5
IC50 (BJ): 1.94 µM
Activity (HeLa [23]): 2.6%
Activity (HeLa [24]): 67.26%
Activity (HeLa [25]): Active
Activity (HeLa [26]): Active
Activity (HeLa [27]): Active
Activity (HeLa [28]): 11.05%
Activity (MIA PaCa-2): Dose-dependent effect
IC50 [2]: 1.13 µM
viability at 1.34 µM (HeLa [29]): 92%
Activity (HeLa [30]): 12.1%
IC50 (HT-29): 0.71 µM
Activity (HeLa [31]): Active
Activity (HeLa [32]): 76.03%
Activity (HeLa [33]): Dose-dependent effect
Activity (HeLa [34]): Active
Activity (HeLa [35]): 0.172%
Activity (HeLa [36]): 2.86%
Activity (HeLa [37]): Active
Activity (HeLa [38]): Active
Activity (HeLa [39]): 0.193%

C[C@H]1[C@H](C)CC[C@@]23CC[C@]4(C)[C@](OC2=O)([C@H](F)C[C@@H]2[C@@]5(C)C(C=O)=C[C@@](C)(COC(=O)c6ccccc6)[C@@H]5CC[C@]24C)[C@H]13
Activity (MCF7): Dose-dependent effect
IC50 (MCF7): 0.88 µM
Activity (Jurkat): Dose-dependent effect
IC50 (HeLa [1]): 0.8 µM
Activity (A-375): Dose-dependent effect
IC50 (A-375): 0.96 µM
Activity (PC-3): Dose-dependent effect
IC50 (BJ): 2.24 µM
Activity (MIA PaCa-2): Dose-dependent effect
IC50 [2]: 1.33 µM
IC50 (HT-29): 1.05 µM

C[C@H]1[C@H](C)CC[C@]2(C(=O)O)CC[C@]3(C)C(=CC[C@@H]4[C@@]5(C)C[C@@H](O)[C@H](O)[C@@](C)(CO)[C@@H]5CC[C@]43C)[C@H]12 [ASIATIC ACID]
Activity (MCF7): Dose-dependent effect
IC50 (MCF7): 68.5 µM
Activity (Jurkat): Dose-dependent effect
IC50 (Jurkat): 37.2 µM
IC50 (HeLa [1]): 52.5 µM
Activity (A-375): Dose-dependent effect
IC50 (A-375): 50.3 µM
Activity (PC-3): Dose-dependent effect
IC50 [16]: 67.2 µM
IC50 (BJ): 88.7 µM
Activity (MIA PaCa-2): Dose-dependent effect
IC50 [2]: 50.7 µM
IC50 (HT-29): 64.3 µM

C[C@H]1[C@H](C)CC[C@@]23CC[C@]4(C)[C@](OC2=O)([C@H](F)C[C@@H]2[C@@]5(C)CC(=O)[C@H](O)[C@@](C)(CO)[C@@H]5CC[C@]24C)[C@H]13
Activity (MCF7): Dose-dependent effect
Activity (Jurkat): Dose-dependent effect
IC50 (HeLa [1]): 24.5 µM
Activity (A-375): Dose-dependent effect
Activity (PC-3): Dose-dependent effect
Activity (BJ): Dose-dependent effect
Activity (MIA PaCa-2): Dose-dependent effect
IC50 (HT-29): 23.5 µM

CCCC(=O)OC[C@@]1(C)[C@@H]2CC[C@]3(C)[C@H](C[C@@H](F)[C@]45OC(=O)[C@@]6(CC[C@@H](C)[C@H](C)[C@H]64)CC[C@]53C)[C@@]2(C)C[C@@H](OC(=O)CCC)[C@@H]1OC(=O)CCC
Activity (MCF7): Dose-dependent effect
Activity (Jurkat): Dose-dependent effect
IC50 (HeLa [1]): 5.05 µM
Activity (A-375): Dose-dependent effect
Activity (PC-3): Dose-dependent effect
Activity (BJ): Dose-dependent effect
Activity (MIA PaCa-2): Dose-dependent effect
IC50 (HT-29): 7.4 µM

Reference: ChEMBL document CHEMBL3784916, “Synthesis and anticancer activity of novel fluorinated asiatic acid derivatives” (Eur J Med Chem, 2016)
